Our source for the IC50 and viability, T/C values is PubChem BioAssay AID1963975 (Molecular Pharmacology Branch, DTP, NCI, 2024).

In this assay the test system is 624824-186-R-J2-PDC multicell spheroids, viability. Put plainly: Anticancer human tumor 624824-186-R-J2-PDC patient-derived colon adenocarcinoma cell line growth inhibition [PI3K]. To be noted: for viability, T/C: stronger effect = lower value. Summed up:
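Three cell types, namely tumor cells, endothelial cells and mesenchymal stem cells, formed each spheroid. Combinations with four PI3K inhibitors were screened at clinically achievable concentrations decreasing by half-log, and spheroid viability was recorded.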
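Also: spheroids exposed to agents for 7 days before viability read.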
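For viability, T/C in this document: 100% = DMSO vehicle treated spheroids.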

In general, IC50 refers to the concentration that inhibits the measured activity by half. As a reminder, the viability, T/C is the ratio of treated to control. On to `CCN1CCN(Cc2ccc(Nc3ncc(F)c(-c4cc(F)c5nc(C)n(C(C)C)c5c4)n3)nc2)CC1` + CC(Nc1ncnc2nc[nH]c12)c1cc2cccc(Cl)c2c(=O)n1-c1ccccc1, for which the IC50 reads like this: (curve of first compound, second compound 0.0316 µM) > 1000 nM; (curve of first compound, second compound 0.1 µM) > 1000 nM; (curve of first compound, second compound 0.316 µM) > 1000 nM; (curve of first compound, second compound 1 µM) > 1000 nM; (curve of first compound, second compound 3.16 µM) > 1000 nM; (curve of first compound, second compound 10 µM) > 1000 nM. The viability, T/C is, setting by setting: (second compound 0.0316 µM, first compound 0.00316 µM) 91.4%; (second compound 0.0316 µM, first compound 0.01 µM) 125%; (second compound 0.0316 µM, first compound 0.0316 µM) 77.5%; (second compound 0.0316 µM, first compound 0.1 µM) 83.9%; (second compound 0.0316 µM, first compound 0.316 µM) 85.3%; (second compound 0.0316 µM, first compound 1 µM) 101%. Further, the viability, T/C (second compound 0.1 µM, first compound 0.00316 µM) is 121%; the viability, T/C (second compound 0.1 µM, first compound 0.01 µM) is 100%; the viability, T/C (second compound 0.1 µM, first compound 0.0316 µM) is 100%; the viability, T/C (second compound 0.1 µM, first compound 0.1 µM) was 102%; the viability, T/C (second compound 0.1 µM, first compound 0.316 µM) is 88.1%; the viability, T/C (second compound 0.1 µM, first compound 1 µM) was 115%. For the same compound, the viability, T/C reads like this: (second compound 0.316 µM, first compound 0.00316 µM) 99.8%; (second compound 0.316 µM, first compound 0.01 µM) 96.2%; (second compound 0.316 µM, first compound 0.0316 µM) 95.5%; (second compound 0.316 µM, first compound 0.1 µM) 66.9%; (second compound 0.316 µM, first compound 0.316 µM) 92%; (second compound 0.316 µM, first compound 1 µM) 112%. Further, the viability, T/C runs as follows: (second compound 1 µM, first compound 0.00316 µM) 104%; (second compound 1 µM, first compound 0.01 µM) 72.2%; (second compound 1 µM, first compound 0.0316 µM) 85.8%; (second compound 1 µM, first compound 0.1 µM) 81.4%; (second compound 1 µM, first compound 0.316 µM) 93.7%; (second compound 1 µM, first compound 1 µM) 102%. Besides, the viability, T/C (second compound 3.16 µM, first compound 0.00316 µM) is 91%; the viability, T/C (second compound 3.16 µM, first compound 0.01 µM) is 86.5%; the viability, T/C (second compound 3.16 µM, first compound 0.0316 µM) was 77.3%; the viability, T/C (second compound 3.16 µM, first compound 0.1 µM) is 95.8%; the viability, T/C (second compound 3.16 µM, first compound 0.316 µM) is 111%; the viability, T/C (second compound 3.16 µM, first compound 1 µM) was 112%. Further, the viability, T/C by setting is: (second compound 10 µM, first compound 0.00316 µM) 120%; (second compound 10 µM, first compound 0.01 µM) 100%; (second compound 10 µM, first compound 0.0316 µM) 114%; (second compound 10 µM, first compound 0.1 µM) 91.6%; (second compound 10 µM, first compound 0.316 µM) 91.2%; (second compound 10 µM, first compound 1 µM) 101%.
`CC(=O)c1c(C)c2cnc(Nc3ccc(N4CCNCC4)cn3)nc2n(C2CCCC2)c1=O`: the viability, T/C was 93.5% [middle of 4 runs] (compound 0.00316 µM) and 87.5% [middle of 4 runs] (compound 0.1 µM). For the same compound, the half-maximal inhibitory concentration (IC50) (curve of compound) was > 100 nM.
